The target of experiment [1] is T1, HarmOBP7-wt (Helicoverpa armigera, UniProt F5ANI5). The experiment in a line: Competitive binding assay, displacement of 1-NPN from HarmOBP7-wt. To be noted: for Affinity to HarmOBP7 (in words): competitive binding with 1-NPN. As to the method:
(§1) Emission fluorescence spectra were recorded on a Hitachi F-4500 at 25°C in a right angle configuration, with a 1 cm light path quartz cuvette and 5 nm slits for both excitation and emission. The protein was dissolved in 50 mM Tris-HCl buffer, pH 7.4, while ligands were added as 1 mM methanol solutions.
The probe was excited at 337 nm and emission spectra were recorded between 380 and 450 nm. […] Dissociation constant for 1-NPN and the stoichiometry of binding was obtained by processing the data with Prism software.

For experiment [2], the target named is HarmOBP7-m2 (Helicoverpa armigera, UniProt F5ANI5). The experiment in a line: Fluorescence binding of 1-NPN to HarmOBP7-m2 (K123M). Particulars: read-out: Dissociation constant of 1-NPN; HarmOBP7-m2, 2 µM protein in Tris, pH 7.4, three replicates, SD 0.22. As to the method:
as §1
(§2) The probe was excited at 337 nm and emission spectra were recorded between 380 and 450 nm. […] Dissociation constant for 1-NPN and the stoichiometry of binding was obtained by processing the data with Prism software. Dissociation constants of the competitors were calculated from the corresponding [IC]50 values (concentrations of ligands halving the initial fluorescence value of 1-NPN), using the equation: KD = [IC50]/1+[1-NPN]/K1-NPN, [1-NPN] being the free concentration of 1-NPN and K1-NPN being the dissociation constant of the complex protein/1-NPN.

In experiment [3] the target is T2, HarmOBP7-m1 (Helicoverpa armigera, UniProt F5ANI5).
T2 sequence (F5ANI5 22-142): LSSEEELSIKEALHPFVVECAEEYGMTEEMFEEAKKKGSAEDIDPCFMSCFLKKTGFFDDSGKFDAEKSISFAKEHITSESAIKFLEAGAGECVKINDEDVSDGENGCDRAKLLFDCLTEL
The experiment in a line: Fluorescence binding of 1-NPN to HarmOBP7-m1 (lacks the last 6 residues). As to the method:
(§3) Emission fluorescence spectra were recorded on a Hitachi F-4500 at 25°C in a right angle configuration, with a 1 cm light path quartz cuvette and 5 nm slits for both excitation and emission. […]
as §2

Experiment [4] deals with T1, HarmOBP7-wt. The experiment in a line: Fluorescence binding of 1-NPN to HarmOBP7-wt. As to the method: as §3, §2
[5] abbreviates: HarmOBP7-wt, 2 µM protein and 2 µM 1-NPN, pH 7.4, values larger than 16 extrapolated from the competitive binding curves, read-out: [IC]50.
[6] abbreviates: HarmOBP7-wt, 2 µM protein and 2 µM 1-NPN, pH 7.4, concentration of ligand halving initial 1-NPN fluorescence, read-out: [IC]50.
The mark [7] stands for this setting: HarmOBP7-wt, calculated from [IC]50: KD = [IC50]/1+[1-NPN]/K1-NPN, read-out: KD (calculated dissociation constant).

This is an account of results in publication PMC3555816, “A Lysine at the C-Terminus of an Odorant-Binding Protein is Involved in Binding Aldehyde Pheromone Components in Two Helicoverpa Species” (PLoS ONE, 2013).

Like-named read-outs stand apart in the source and are kept apart here. Some results are limits rather than exact numbers.

T1 sequence (F5ANI5 entry or part of it): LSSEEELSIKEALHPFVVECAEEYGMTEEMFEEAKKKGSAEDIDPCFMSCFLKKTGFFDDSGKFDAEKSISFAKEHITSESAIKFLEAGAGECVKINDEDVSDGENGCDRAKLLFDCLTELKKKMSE
Chain of HarmOBP7-m2 (F5ANI5 entry or part of it): as above

In experiment [1], `CCCCCCCCCCO` [1-Decanol] had an IC50 greater than 16 µM.

Turning to `CCCCCCCCCCCCO` [1-Dodecanol], the IC50 in experiment [1] (setting [5]) was greater than 25 µM. As to `CCCCCCCCCCCCCCCCO` [1-Hexadecanol], in experiment [1] (setting [5]), the IC50 was greater than 16 µM. In the case of `c1ccc(Nc2cccc3ccccc23)cc1` [1-NPN, N-phenyl-1-naphthylamine], the Kd in experiment [2] stood at 3.2 µM; in experiment [3] (HarmOBP7-m1, 2 µM protein in Tris, pH 7.4, three replicates, SD 1.1, read-out: Dissociation constant of 1-NPN) it was 6.8 µM; in experiment [4] (2 µM protein in Tris, pH 7.4, three replicates, SD 0.63, read-out: Dissociation constant of 1-NPN), 5.5 µM. Further, the “Effect of pH on affinity of 1-NPN (in words)” value in experiment [3] (HarmOBP7-m1, pH range 3.5 to 9.5, basic conditions, no significant loss of binding down to pH 3.5) was “marked increase in affinity”; in experiment [4] (pH range 3.5 to 9.5, basic conditions, no significant loss of binding down to pH 3.5), “marked increase in affinity”.

Take `CCCCCCCCCCCCCCCCCCO` [1-Octadecanol]: the IC50 in experiment [1] (setting [5]) was greater than 25 µM. On the same count and under the same terms, for `CCCCCCCCCCCCCCCO` [1-Pentadecanol] the value was greater than 25 µM. On to `CCCCCCCCCCCCCCO` [1-Tetradecanol], for which, in experiment [1], the IC50 stood at 6.7 µM and the Kd turned out to be 5.1 µM. With `CCCCCCCCCCCCCO` [1-Tridecanol], in experiment [1] (setting [6]), the IC50 was found to be 4.6 µM. Moreover, the Kd in experiment [1] (setting [7]) is 3.5 µM. Regarding `CCCCCCCCCCC(C)=O` [2-Dodecanone], in experiment [1] (setting [5]), the IC50 was greater than 16 µM. In the case of `COc1ccccc1C=CC=O` [2-Methoxycinnamaldehyde], in experiment [1] (setting [6]), the IC50 came to 14.7 µM. Further, the Kd in experiment [1] (setting [7]) is 11.1 µM. Consider `Cc1ccc2ccccc2c1` [2-Methylnaphthalene], for which the IC50 in experiment [1] is greater than 16 µM. Take `CCCCCCCCCCCC(C)=O` [2-Tridecanone]: the IC50 in experiment [1] (setting [6]) was 9.6 µM. Further, the Kd in experiment [1] (setting [7]) is 7.3 µM. Regarding `CC(C)CCCC(C)CCOC(=O)c1ccccc1` (stereo not shown) [3,7-Dimethyloctylbenzoate], the IC50 in experiment [1] (setting [6]) was found to be 3.5 µM. Also, in experiment [1] (setting [7]), the Kd is 2.7 µM.

With `COc1ccc(-c2ccccc2)cc1` [4-Phenylanisole], the IC50 in experiment [1] (setting [5]) was greater than 16 µM. In experiment [1], `O=Cc1ccccc1` [Benzaldehyde] gave an IC50 of 10.8 µM and a Kd of 8.2 µM.

`CCCCOC(=O)/C=C/c1ccccc1` [Butyl cinnamate]: the IC50 in experiment [1] (setting [6]) was 9.6 µM. The Kd in experiment [1] (setting [7]) was 7.3 µM. Turning to `CCCCOC(=O)c1ccc(C(C)(C)C)cc1` [Butyl p-tert-butyl benzoate], in experiment [1] (setting [6]), the IC50 was 6.9 µM. Also, in experiment [1] (setting [7]), the Kd is 5.2 µM.

Take `O=C(O)/C=C/c1ccccc1` [Cinnamic acid]: in experiment [1], the IC50 is greater than 25 µM. `COc1cc(/C=C/C=O)ccc1O` [Coniferyl aldehyde]: in experiment [1], the IC50 came out at 12.7 µM and the Kd turned out to be 9.6 µM. As for `CCCCCCCCCCCC=O` [Dodecanal], the IC50 in experiment [1] (setting [6]) is 10.3 µM. For the same compound, the Kd in experiment [1] (setting [7]) was 7.8 µM.

As for `CCCCCCCCCCCCOC(C)=O` [Dodecyl acetate], in experiment [1] (setting [6]), the IC50 is 5.2 µM. Besides, the Kd in experiment [1] (setting [7]) is 3.9 µM. As to `CCCCCCCCCC(=O)OCC` [Ethyl decanoate], the IC50 in experiment [1] (setting [5]) is greater than 16 µM.

As for `CCCCCCCCCCCC(=O)OCC` [Ethyl laurate], the IC50 in experiment [1] (setting [6]) was 4.3 µM. Besides, the Kd in experiment [1] (setting [7]) is 3.3 µM. Taken in the same sequence, the figures for `CCCCCCCCCCCCCC(=O)OCC` [Ethyl myristate] were 4.7 µM and 3.5 µM.

Regarding `CCCCCCCCCCCCCCCC(=O)OCC` [Ethyl palmitate], the IC50 in experiment [1] (setting [6]) worked out at 12.6 µM. Moreover, the Kd in experiment [1] (setting [7]) was 12.6 µM. In the case of `CCCCCCCCCCCCCCCCC=O` [Heptadecanal], in experiment [1] (setting [6]), the IC50 amounted to 9.1 µM. For the same compound, in experiment [1] (setting [7]), the Kd is 6.9 µM. As for `COc1cc(CC(=O)O)ccc1O` [Homovanillic acid], in experiment [1], the IC50 is greater than 16 µM. On to `COC(=O)C=Cc1ccccc1` [Methyl cinnamate], for which the IC50 in experiment [1] (setting [5]) was greater than 16 µM. For the compound `CCCCCCCCCCCCCC=O` [Tetradecanal], in experiment [1] (setting [6]), the IC50 came to 3.2 µM. The Kd in experiment [1] (setting [7]) was 2.4 µM. The matching figures for `CCCCCCCCCCCCC=O` [Tridecanal]: 4.9 µM and 3.7 µM.

In the case of `CCCCCCCCCCC=O` [Undecanal], in experiment [1] (setting [6]), the IC50 worked out at 10.7 µM. In experiment [1] (setting [7]), the Kd was 8.1 µM.

For `CCCCCC/C=C\CCCCCCCC=O` [Z-9-hexadecenal], the “Affinity to HarmOBP7 (in words)” value in experiment [1] (HarmOBP7-wt) is on record as “good affinity”. The same measure, in the same setting: as for `CCCC/C=C\CCCCCCCCCC=O` [Z-11-hexadecenal], the entry is “good affinity”. In the case of `CC(C)c1ccc(C=O)cc1` [p-Isopropylbenzaldehyde], the IC50 in experiment [1] (setting [6]) came out at 10.5 µM. The Kd in experiment [1] (setting [7]) was 7.9 µM. The matching figures for `CC(C)(C)c1ccc(C(=O)c2ccccc2)cc1` [p-tert-Butylbenzophenone]: 4.5 µM and 3.4 µM. The matching figures for `CCCCC/C(C=O)=C/c1ccccc1` [α-Amylcinnamaldehyde]: 5.5 µM and 4.2 µM.
